Structures are written as SMILES.

Common to all, as to assay type: cell-based
The test system of experiment [1] is A2780Cis (cisplatin-resistant human ovarian cancer). Kind of experiment: In vitro cytotoxicity, SRB assay, A2780Cis. To be noted: for IC50: Homo sapiens, A2780cis, read-out: IC50 (nM) A2780Cis.
Experiment [2] has as its system PLC/PRF/5 (human liver cancer). Put plainly: cells. To be noted: Table 4; PLC/PRF/5 human liver cancer cells; read-out: IC50 (nM) PLC/PRF/5.
For experiment [3], the system named is MV-4-11 (human biphenotypic leukaemia). Put plainly: In vitro cytotoxicity, MTT assay, MV-4-11. To be noted: for IC50: Homo sapiens, MV4-11, read-out: IC50 (nM) MV4-11.
Experiment [4] concerns MIA PaCa-2 (human pancreatic cancer). Put plainly: cells. The following applies: Table 4; MIA PaCa-2 human pancreatic cancer cells; read-out: IC50 (nM) MIA PaCa-2.
A further experiment relates to Hs294T (human melanoma). Put plainly: cells. To be noted: Hs 294T; Table 4; Hs294T human melanoma cells; read-out: IC50 (nM) Hs294T.
Experiment [5] has as its system BALB/3T3 (normal mouse fibroblasts). Kind of experiment: In vitro cytotoxicity, SRB assay, normal BALB/3T3 fibroblasts. To be noted: Table 5; BALB/3T3 normal mouse fibroblasts; read-out: IC50 (nM) BALB3T3 normal cells.

Turning to `CC[C@@H](C(=O)[C@@H](C)[C@@H](O)[C@H](C)[C@@H]1O[C@@H]([C@@H](CC)C(=O)O)CC[C@@H]1C)[C@H]1O[C@]2(C=C[C@@H](NC(=O)C(=O)NCCCn3ccnc3)[C@]3(CC[C@@](C)([C@H]4CC[C@](O)(CC)[C@H](C)O4)O3)O2)[C@H](C)C[C@@H]1C` [FLC-00392-1•Na], the IC50 came out at 3750 nM in experiment [1], 8330 nM in experiment [2] and 1960 nM in experiment [3].
As to `CCCCCCCCCCCCCCCCOC(=O)N[C@@H]1C=C[C@]2(O[C@H]([C@@H](CC)C(=O)[C@@H](C)[C@@H](O)[C@H](C)[C@@H]3O[C@@H]([C@@H](CC)C(=O)O)CC[C@@H]3C)[C@@H](C)C[C@H]2C)O[C@@]12CC[C@@](C)([C@H]1CC[C@](O)(CC)[C@H](C)O1)O2` [FLC-00410-1•Na], the figures for the IC50 in experiment [1] and in experiment [3] were 7700 nM and 3740 nM, respectively.
With `CC[C@@H](C(=O)[C@@H](C)[C@@H](O)[C@H](C)[C@@H]1O[C@@H]([C@@H](CC)C(=O)O)CC[C@@H]1C)[C@H]1O[C@]2(C=C[C@@H](NC(=O)C(=O)NCCO)[C@]3(CC[C@@](C)([C@H]4CC[C@](O)(CC)[C@H](C)O4)O3)O2)[C@H](C)C[C@@H]1C` [FLC-00438-1•Na], the IC50 in experiment [1] is 2900 nM; in experiment [2] it was 7280 nM; in experiment [4] it was 6460 nM; in experiment [3], 2500 nM.
Regarding `CC[C@@H](C(=O)[C@@H](C)[C@@H](O)[C@H](C)[C@@H]1O[C@@H]([C@@H](CC)C(=O)O)CC[C@@H]1C)[C@H]1O[C@]2(C=C[C@@H](NC(=O)C(=O)NCCN)[C@]3(CC[C@@](C)([C@H]4CC[C@](O)(CC)[C@H](C)O4)O3)O2)[C@H](C)C[C@@H]1C` [FLC-00456-1•Na], the IC50 in experiment [1] amounted to 2850 nM; with Hs294T (human melanoma) it was 8690 nM; in experiment [2], 7290 nM; in experiment [3] it was 3430 nM.
In the case of `CC[C@@H](C(=O)[C@@H](C)[C@@H](O)[C@H](C)[C@@H]1O[C@@H]([C@@H](CC)C(=O)O)CC[C@@H]1C)[C@H]1O[C@]2(C=C[C@@H](NC(=O)C(=O)NCCN3CCOCC3)[C@]3(CC[C@@](C)([C@H]4CC[C@](O)(CC)[C@H](C)O4)O3)O2)[C@H](C)C[C@@H]1C` [FLC-00465-1•Na], the results for the IC50 in experiment [1] and in experiment [3] were 3070 nM and 3170 nM, respectively.
With `CC[C@@H](C(=O)[C@@H](C)[C@@H](O)[C@H](C)[C@@H]1O[C@@H]([C@@H](CC)C(=O)O)CC[C@@H]1C)[C@H]1O[C@]2(C=C[C@@H](NC(=O)C(=O)NCCN(C)C)[C@]3(CC[C@@](C)([C@H]4CC[C@](O)(CC)[C@H](C)O4)O3)O2)[C@H](C)C[C@@H]1C` [FLC-00471-1•Na], the figures for the IC50 in experiment [1] and in experiment [3] were 4290 nM and 4730 nM, respectively.
With `CC[C@@H](C(=O)[C@@H](C)[C@@H](O)[C@H](C)[C@@H]1O[C@@H]([C@@H](CC)C(=O)O)CC[C@@H]1C)[C@H]1O[C@]2(C=C[C@@H](NC(=O)C(=O)NCc3ccccc3Cl)[C@]3(CC[C@@](C)([C@H]4CC[C@](O)(CC)[C@H](C)O4)O3)O2)[C@H](C)C[C@@H]1C` [FLC-00477-1•Na], in experiment [1], the “SI A2780Cis” value was 40.4 and the IC50 came to 3.54 nM. For the same compound, the IC50 in experiment [5] was 143 nM. Besides, in experiment [3], the “SI MV4-11” value is 46.1 and the IC50 came out at 3.11 nM.
On to `CC[C@@H](C(=O)[C@@H](C)[C@@H](O)[C@H](C)[C@@H]1O[C@@H]([C@@H](CC)C(=O)O)CC[C@@H]1C)[C@H]1O[C@]2(C=C[C@@H](NC(=O)C(=O)NCc3ccccn3)[C@]3(CC[C@@](C)([C@H]4CC[C@](O)(CC)[C@H](C)O4)O3)O2)[C@H](C)C[C@@H]1C` [FLC-00478-1•Na], for which, in experiment [1], the “SI A2780Cis” value came out at 25.9 and the IC50 was found to be 63.6 nM. Besides, the IC50 in experiment [5] stood at 1650 nM. Besides, in experiment [3], the “SI MV4-11” value is reported as 9.2 and the IC50 was found to be 180 nM.
The like results for `CC[C@@H](C(=O)[C@@H](C)[C@@H](O)[C@H](C)[C@@H]1O[C@@H]([C@@H](CC)C(=O)O)CC[C@@H]1C)[C@H]1O[C@]2(C=C[C@@H](NC(=O)C(=O)NCc3cccnc3)[C@]3(CC[C@@](C)([C@H]4CC[C@](O)(CC)[C@H](C)O4)O3)O2)[C@H](C)C[C@@H]1C` [FLC-00479-1•Na] were, in that order, 15.8, 272 nM, 4300 nM, 12.6 and 343 nM.
The like results for `CC[C@@H](C(=O)[C@@H](C)[C@@H](O)[C@H](C)[C@@H]1O[C@@H]([C@@H](CC)C(=O)O)CC[C@@H]1C)[C@H]1O[C@]2(C=C[C@@H](NC(=O)OCCOC(C)(C)C)[C@]3(CC[C@@](C)([C@H]4CC[C@](O)(CC)[C@H](C)O4)O3)O2)[C@H](C)C[C@@H]1C` [FLC-00480-1•Na] were, in that order, 43.6, 4.25 nM, 185 nM, 9.7 and 19.1 nM.
Take `CC[C@@H](C(=O)[C@@H](C)[C@@H](O)[C@H](C)[C@@H]1O[C@@H]([C@@H](CC)C(=O)O)CC[C@@H]1C)[C@H]1O[C@]2(C=C[C@@H](NC(=O)OCCOCCOCCOCCOC)[C@]3(CC[C@@](C)([C@H]4CC[C@](O)(CC)[C@H](C)O4)O3)O2)[C@H](C)C[C@@H]1C` [FLC-00481-1•Na]: the “SI A2780Cis” value in experiment [1] was determined as 17.4. Also, the IC50 in experiment [1] came out at 220 nM; in experiment [5] it was 3830 nM; in experiment [3], 320 nM. Besides, in experiment [3], the “SI MV4-11” value is 12.0.
On to `CC[C@@H](C(=O)[C@@H](C)[C@@H](O)[C@H](C)[C@@H]1O[C@@H]([C@@H](CC)C(=O)O)CC[C@@H]1C)[C@H]1O[C@]2(C=C[C@@H](NC(=O)OCCS(C)(=O)=O)[C@]3(CC[C@@](C)([C@H]4CC[C@](O)(CC)[C@H](C)O4)O3)O2)[C@H](C)C[C@@H]1C` [FLC-00483-1•Na], for which, in experiment [1], the “SI A2780Cis” value is 21.2 and the IC50 stood at 250 nM. Besides, the IC50 in experiment [5] turned out to be 5310 nM. For the same compound, in experiment [3], the “SI MV4-11” value is 15.7 and the IC50 was found to be 339 nM.
Take `CC[C@@H](C(=O)[C@@H](C)[C@@H](O)[C@H](C)[C@@H]1O[C@@H]([C@@H](CC)C(=O)O)CC[C@@H]1C)[C@H]1O[C@]2(C=C[C@@H](NC(=O)N3CCN(CC)C(=O)C3=O)[C@]3(CC[C@@](C)([C@H]4CC[C@](O)(CC)[C@H](C)O4)O3)O2)[C@H](C)C[C@@H]1C` [FLC-00518-1•Na]: the IC50 in experiment [1] was 3220 nM; in experiment [3], 3490 nM.
As to `CC[C@@H](C(=O)[C@@H](C)[C@@H](O)[C@H](C)[C@@H]1O[C@@H]([C@@H](CC)C(=O)O)CC[C@@H]1C)[C@H]1O[C@]2(C=C[C@@H](NC(=O)NCCCN(C)C)[C@]3(CC[C@@](C)([C@H]4CC[C@](O)(CC)[C@H](C)O4)O3)O2)[C@H](C)C[C@@H]1C` [FLC-00562-1•Na], the figures for the IC50 in experiment [1] and in experiment [3] were 3010 nM and 3070 nM, respectively.
The like results for `CC[C@@H](C(=O)[C@@H](C)[C@@H](O)[C@H](C)[C@@H]1O[C@@H]([C@@H](CC)C(=O)O)CC[C@@H]1C)[C@H]1O[C@]2(C=C[C@@H](NC(=O)N(C)CCCN(C)C)[C@]3(CC[C@@](C)([C@H]4CC[C@](O)(CC)[C@H](C)O4)O3)O2)[C@H](C)C[C@@H]1C` [FLC-00563-1•Na] were, in that order, 3120 nM and 3250 nM.
Turning to `CC[C@@H](C(=O)[C@@H](C)[C@@H](O)[C@H](C)[C@@H]1O[C@@H]([C@@H](CC)C(=O)O)CC[C@@H]1C)[C@H]1O[C@]2(C=C[C@@H](NC(=O)c3cc(OC)c(OC)c(OC)c3)[C@]3(CC[C@@](C)([C@H]4CC[C@](O)(CC)[C@H](C)O4)O3)O2)[C@H](C)C[C@@H]1C` [FLC-00573-1•Na], the IC50 in experiment [5] was found to be 1880 nM; in experiment [3] it was 158 nM.

The record behind these values is patent publication US20240294541A1, “COMPOUNDS CONSTITUTING C20-MODIFIED SALINOMYCIN DERIVATIVES, A METHOD FOR OBTAINING THE SAME, A COMPOSITION CONTAINING THE SAME AND A USE OF SAID COMPOUNDS” (FILECLO SPOLKA Z OGRANICZONA ODPOWIEDZIALNOSCIA, priority 2021, published 2024).
